Experimental data published in patent US9776972B2, “Pyrazole derivatives as arginine methyltransferase inhibitors and uses thereof” (priority 2013, dated 2017).
Counter-ions that a name gives are not always drawn. Like-named read-outs stand apart in the source and are kept apart here.

Assays:
human PRMT1 = target: T1, human PRMT1 (Homo sapiens, UniProt Q99873); test: PRMT1 Biochemical Assay (3H-SAM Flashplate, peptide substrate); details: single experiment or average of multiple experiments
T1 construct: GST-tagged PRMT1; made in house; host or cells: High Five insect cells (baculovirus)
T1 sequence (Q99873 with tags, fused parts or gaps): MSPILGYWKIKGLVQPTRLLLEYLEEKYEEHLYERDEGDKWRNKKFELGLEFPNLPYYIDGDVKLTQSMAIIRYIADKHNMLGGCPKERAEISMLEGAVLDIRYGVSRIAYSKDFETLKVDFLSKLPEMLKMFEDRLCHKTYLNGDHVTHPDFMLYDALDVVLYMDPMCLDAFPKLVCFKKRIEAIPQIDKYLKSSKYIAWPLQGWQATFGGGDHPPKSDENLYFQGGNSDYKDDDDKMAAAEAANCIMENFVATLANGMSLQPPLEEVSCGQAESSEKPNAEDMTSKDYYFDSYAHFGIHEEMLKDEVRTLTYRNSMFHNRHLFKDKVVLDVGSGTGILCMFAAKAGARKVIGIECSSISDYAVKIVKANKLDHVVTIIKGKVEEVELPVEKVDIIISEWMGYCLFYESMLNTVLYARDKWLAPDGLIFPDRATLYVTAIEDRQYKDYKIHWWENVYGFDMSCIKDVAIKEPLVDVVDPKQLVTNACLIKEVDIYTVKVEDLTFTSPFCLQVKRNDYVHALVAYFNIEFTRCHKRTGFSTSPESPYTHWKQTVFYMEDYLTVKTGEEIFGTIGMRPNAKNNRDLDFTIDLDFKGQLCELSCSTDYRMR
Outline: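 GST-tagged PRMT1 from baculovirus-infected cells, preincubated with compounds 30 min at room temperature in 20 mM Bicine pH 7.6, 1 mM TCEP, 0.005% BSG, 0.002% Tween 20. Reaction started with ³H-SAM plus biotinylated peptide, stopped with 300 µM cold SAM.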

[1] = test system: mono-methyl arginine in RKO cells; test: RKO Methylation Assay, In Cell Western (ICW) for mono-methyl arginine and DNA content; format: cell-based; details: for EC30: Homo sapiens, RKO, 72 h; for EC30 (In Cell Western data): class symbols
Outline: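 After fixation, mono-methyl arginine and DNA (DRAQ5) were measured by infrared In-Cell Western imaging at 700/800 nm in RKO cells exposed to compounds for 72 hours. Percent activation used DMSO wells as minimum and 20 μM reference compound as maximum; EC30 curves fitted on triplicate wells.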

[2] = read-out: EC30 (In Cell Western data, Numerical, μM)
[3] = RKO cells, 72 hours, mono-methyl arginine, percent activation, single experiment or average of multiple experiments, read-out: EC30 (In Cell Western data, Numerical)
[4] = RKO cells, 72 hours, mono-methyl arginine, percent activation

Compound	IC50 (human PRMT1)	EC30 [1, 3]	further results
CNCCN(C)Cc1c[nH]nc1-c1ccc(F)cc1 [Compound 2, N^1-((3-(4-fluorophenyl)-1H-pyrazol-4-yl)methyl)-N^1,N^2-dimethylethane-1,2-diamine]	57.6 nM	–	EC30 [1, 2]: 1.12 µM
CCCc1ccc(-c2n[nH]cc2CN(C)CCNC)cc1 [Compound 20]	4.12 nM	0.18 µM	–
CNCCN(C)Cc1c[nH]nc1-c1cccc([N+](=O)[O-])c1 [Compound 21]	57.9 nM	–	–
CNCCN(C)Cc1c[nH]nc1-c1cccc(C#N)c1 [Compound 22]	166 nM	–	–
CNCCN(C)Cc1c[nH]nc1-c1ccccc1OC [Compound 23]	194 nM	–	–
CNCCN(C)Cc1c[nH]nc1-c1cccc(OC)c1 [Compound 24]	85.6 nM	–	–
CNCCN(C)Cc1c[nH]nc1-c1ccc(OC)cc1 [Compound 25]	20.9 nM	–	–
CNCCN(C)Cc1c[nH]nc1-c1cccc(O)c1 [Compound 26]	197 nM	–	–
CNCCN(C)Cc1c[nH]nc1-c1ccc(O)cc1 [Compound 27]	97.7 nM	12.3 µM	–
CNCCN(C)Cc1c[nH]nc1-c1ccc(CO)cc1 [Compound 28]	11.1 nM	10.2 µM	–
CNCCN(C)Cc1c[nH]nc1-c1ccc(C)cc1C [Compound 29]	178 nM	–	–
CNCCN(C)Cc1cn(CCCC(O)CO)nc1-c1ccc(F)cc1 (stereo not drawn) [Compound 30]	3560 nM	–	–
CNCCN(C)Cc1cnn(CCCC(O)CO)c1-c1ccc(F)cc1 (stereo not drawn) [Compound 31]	779 nM	–	–
CNCCN(C)Cc1c[nH]nc1-c1ccc(N)cc1 [Compound 33]	153 nM	–	–
CNCCN(C)Cc1c[nH]nc1-c1ccc(Oc2ccccc2)cc1 [Compound 37]	2.74 nM	0.05 µM	–
CNCCN(C)Cc1c[nH]nc1-c1ccccc1C(F)(F)F [Compound 38]	1830 nM	–	EC30 (In Cell Western data) [1, 4]: C (“C” indicates an EC30 ≧ 12.01 μM)
CCNC(=O)c1cccc(-c2n[nH]cc2CN(C)CCNC)c1 [Compound 43]	338 nM	–	–
CNCCN(C)Cc1c[nH]nc1-c1ccc(C(=O)c2ccccc2)cc1 [Compound 45]	8.34 nM	–	EC30 (In Cell Western data) [1, 4]: A (“A” indicates an EC30 ≦ 3.00 μM); EC30 (In Cell Western data, Numerical, μM) ([1]; RKO cells, 72 hours, mono-methyl arginine, percent activation, single experiment or average of multiple experiments): 0.454 µM
CNCCN(C)Cc1c[nH]nc1-c1ccccc1-c1ccccc1 [Compound 46]	2500 nM	–	EC30 (In Cell Western data) [1, 4]: C (“C” indicates an EC30 ≧ 12.01 μM)
CNCCN(C)Cc1c[nH]nc1-c1ccc(F)cc1F [Compound 49]	165 nM	–	–
CNCCN(C)Cc1c[nH]nc1-c1cc(F)ccc1F [Compound 50]	149 nM	–	–
CNCCN(C)Cc1c[nH]nc1-c1ccc(F)c(F)c1 [Compound 51]	12.9 nM	–	–
CNCCN(C)Cc1c[nH]nc1-c1ccc(OC)c(F)c1 [Compound 52]	12.6 nM	–	–

Compound	IC50 (human PRMT1)	EC30 [1, 3]	further results
CNCCN(C)Cc1c[nH]nc1-c1ccc(OC)cc1OC [Compound 55]	190 nM	–	EC30 (In Cell Western data) [1, 4]: C (“C” indicates an EC30 ≧ 12.01 μM)
CNCCN(C)Cc1c[nH]nc1-c1c(OC)cccc1OC [Compound 56]	5850 nM	–	EC30 (In Cell Western data) [1, 4]: C (“C” indicates an EC30 ≧ 12.01 μM)
CNCCN(C)Cc1c[nH]nc1-c1cccc2ccccc12 [Compound 57]	7.07 nM	–	–
CNCCN(C)Cc1c[nH]nc1-c1ccc2ccccc2c1 [Compound 58]	5.73 nM	–	–
CNCCN(C)Cc1cn(CCC(O)CO)nc1-c1ccc(F)cc1 (stereo not drawn) [Compound 59]	5860 nM	–	–
CCN(CCN)Cc1c[nH]nc1-c1ccc(F)cc1 [Compound 62]	13.9 nM	> 20 µM	–
CCCN(CCN)Cc1c[nH]nc1-c1ccc(F)cc1 [Compound 63]	1540 nM	> 20 µM	–
CN(CCN)Cc1cnn(CCO)c1-c1ccc(F)cc1 [Compound 65]	1940 nM	–	–
CN(CCN)Cc1cn(CCO)nc1-c1ccc(F)cc1 [Compound 66]	2410 nM	–	–
CN(CCN)Cc1c[nH]nc1-c1ccc(C#N)cc1 [Compound 68]	6.04 nM	0.775 µM	–
CNCCN(C)Cc1c[nH]nc1-c1cc(C(C)C)cc(C(C)C)c1 [Compound 229, N^1-((3-(3,5-diisopropylphenyl)-1H-pyrazol-4-yl)methyl)-N^1,N^2-dimethylethane-1,2-diamine]	59.7 nM	8.71 µM	–
CNCCN(C)Cc1c[nH]nc1-c1ccc(Oc2cccc(OC)c2)cc1 [Compound 230]	3.43 nM	0.206 µM	–
CNCCN(C)Cc1c[nH]nc1-c1ccc(Oc2cccc(F)c2)cc1 [Compound 231]	4.08 nM	0.23 µM	–
CNCCN(C)Cc1c[nH]nc1-c1ccc(Oc2ccccc2)c(C(=O)NC)c1 [Compound 232]	25 nM	7.14 µM	–
CNCCN(C)Cc1c[nH]nc1-c1ccc(Oc2ccccc2)c(C(=O)N(C)C)c1 [Compound 233]	29.3 nM	17.3 µM	–
CC(C)Cc1cccc(-c2n[nH]cc2CN(C)CCN)c1 [Compound 235]	8.35 nM	1.56 µM	–
CNCCN(C)Cc1c[nH]nc1-c1ccc(OCCCO)cc1 [Compound 236]	9.17 nM	0.852 µM	–
CNCCN(C)Cc1c[nH]nc1-c1ccc(Oc2ccccc2F)cc1 [Compound 237]	2.06 nM	0.114 µM	–
CNCCN(C)Cc1n[nH]cc1-c1ccc(Oc2cccc(OC)c2)cc1 [Compound 239]	2.51 nM	1.28 µM	–
CNCCN(C)Cc1n[nH]cc1-c1ccc(Oc2ccccc2)c(C(=O)NC)c1 [Compound 240]	38.2 nM	6.45 µM	–
CNCCN(C)Cc1n[nH]cc1-c1ccc(Oc2ccccc2)c(C(=O)N(C)C)c1 [Compound 241]	52.2 nM	10.4 µM	–
CNCCN(C)Cc1n[nH]cc1-c1cc(C(C)C)cc(C(C)C)c1 [Compound 242]	376 nM	> 20 µM	–
CNCCN(C)Cc1cn(C)nc1-c1ccc(OC(C)C)cc1 [Compound 243, N^1-((3-(4-isopropoxyphenyl)-1-methyl-1H-pyrazol-4-yl)methyl)-N1,N2-dimethylethane-1,2-diamine]	17.7 nM	0.809 µM	–

Compound	IC50 (human PRMT1)	EC30 [1, 3]	further results
CNCCN(C)Cc1cn(Cc2ccncc2)nc1-c1ccc(OC(C)C)cc1 [Compound 245]	35.3 nM	0.627 µM	–
CNCCN(C)Cc1cn(Cc2cccnc2)nc1-c1ccc(OC(C)C)cc1 [Compound 246]	61.5 nM	–	EC30 [1, 2]: 1.08 µM
CNCCN(C)Cc1cn(Cc2ccccn2)nc1-c1ccc(OC(C)C)cc1 [Compound 247]	147 nM	8.26 µM	–
CNCCN(C)Cc1cn(CC(=O)OC)nc1-c1ccc(OC(C)C)cc1 [Compound 248]	215 nM	> 20 µM	–
CNCCN(C)Cc1cnn(CC(=O)OC)c1-c1ccc(OC(C)C)cc1 [Compound 249]	109 nM	–	EC30 [1, 2]: 9.53 µM
CNCCN(C)Cc1cn(CC(=O)O)nc1-c1ccc(OC(C)C)cc1 [Compound 250]	737 nM	–	EC30 [1, 2]: > 20 µM
CNCCN(C)Cc1cn(CC(N)=O)nc1-c1ccc(OC(C)C)cc1 [Compound 251]	275 nM	18.7 µM	–
CCn1ncc(CN(C)CCNC)c1-c1ccc(OC(C)C)cc1 [Compound 252]	25.8 nM	–	EC30 [1, 2]: 1.82 µM
CNCCN(C)Cc1cn(CCOC)nc1-c1ccc(OC(C)C)cc1 [Compound 253, N1-((3-(4-isopropoxyphenyl)-1-(2-methoxyethyl)-1H-pyrazol-4-yl)methyl)-N1,N2-dimethylethane-1,2-diamine hydrochloride]	113 nM	–	EC30 [1, 2]: 8 µM
CNCCN(C)Cc1cn(C2CCC2)nc1-c1ccc(OC(C)C)cc1 [Compound 254, N1-((1-cyclobutyl-3-(4-isopropoxyphenyl)-1H-pyrazol-4-yl)methyl)-N1,N2-dimethylethane-1,2-diamine hydrochloride]	29.3 nM	–	EC30 [1, 2]: 2.24 µM
CNCCN(C)Cc1cnn(C2CCCC2)c1-c1ccc(OC(C)C)cc1 [Compound 255]	16.8 nM	–	EC30 [1, 2]: 2.66 µM
CNCCN(C)Cc1cn(C2CCCCC2)nc1-c1ccc(OC(C)C)cc1 [Compound 256]	132 nM	> 20 µM	–
C=C(C)C(=O)Nc1cccc(-c2[nH]ncc2CN(C)CCNC)c1 [Compound 257]	135 nM	> 20 µM	–
C=CC(=O)Nc1cccc(-c2[nH]ncc2CN(C)CCNC)c1 [Compound 258]	43.9 nM	> 20 µM	–
CN(CCN)Cc1c[nH]nc1-c1ccc(Oc2ccccc2F)cc1 [Compound 259]	1.32 nM	0.532 µM	–
CNCCN(C)Cc1c[nH]nc1-c1cc(OC(C)C)cc(C(C)C)c1 [Compound 260]	23.9 nM	6.07 µM	–
CNCCN(C)Cc1c[nH]nc1-c1ccc(Oc2cccc(C#N)c2)cc1 [Compound 261]	2.94 nM	0.327 µM	–
CNCCN(C)Cc1c[nH]nc1-c1ccc(Oc2cccc(C(C)C)c2)cc1 [Compound 262]	5.63 nM	1.23 µM	–
CNCCN(C)Cc1c[nH]nc1-c1cc(Cl)c(OC(C)C)c(Cl)c1 [Compound 265, N^1-((3-(3,5-dichloro-4-isopropoxyphenyl)-1H-pyrazol-4-yl)methyl)-N^1,N^2-dimethylethane-1,2-diamine]	5.67 nM	0.503 µM	–
CNCCN(C)Cc1nn(C)cc1-c1ccc(OCCCOC)cc1 [Compound 266]	176 nM	> 20 µM	–
CNCCN(C)Cc1n[nH]cc1-c1ccc(Oc2cccc(C#N)c2)cc1 [Compound 267]	3.47 nM	0.694 µM	–
CNCCN(C)Cc1n[nH]cc1-c1ccc(Oc2cccc(C(=O)NC)c2)cc1 [Compound 268]	4.58 nM	3.69 µM	–
